Test results taken from ChEMBL document CHEMBL1201862, “PubChem BioAssay data set” (2004).
The source made the active and inactive calls.

What was measured:
Insulin-degrading enzyme = target: T1, Insulin-degrading enzyme (Homo sapiens, UniProt P14735); experiment: Dose Response: Fluorescence polarization-based cell-based high throughput dose response assay for inhibitors of insulin-degrading enzyme (IDE). [Related pubchem assays: 434962 (Primary screen (IDE inhibitors in singlicate)), 449730 (Counterscreen (Cytotoxicity in triplicate)), 435028 (Confirmation (IDE inhibitors in triplicate)), 434984 (Summary …; assay type: functional
T1 sequence (P14735 whole entry): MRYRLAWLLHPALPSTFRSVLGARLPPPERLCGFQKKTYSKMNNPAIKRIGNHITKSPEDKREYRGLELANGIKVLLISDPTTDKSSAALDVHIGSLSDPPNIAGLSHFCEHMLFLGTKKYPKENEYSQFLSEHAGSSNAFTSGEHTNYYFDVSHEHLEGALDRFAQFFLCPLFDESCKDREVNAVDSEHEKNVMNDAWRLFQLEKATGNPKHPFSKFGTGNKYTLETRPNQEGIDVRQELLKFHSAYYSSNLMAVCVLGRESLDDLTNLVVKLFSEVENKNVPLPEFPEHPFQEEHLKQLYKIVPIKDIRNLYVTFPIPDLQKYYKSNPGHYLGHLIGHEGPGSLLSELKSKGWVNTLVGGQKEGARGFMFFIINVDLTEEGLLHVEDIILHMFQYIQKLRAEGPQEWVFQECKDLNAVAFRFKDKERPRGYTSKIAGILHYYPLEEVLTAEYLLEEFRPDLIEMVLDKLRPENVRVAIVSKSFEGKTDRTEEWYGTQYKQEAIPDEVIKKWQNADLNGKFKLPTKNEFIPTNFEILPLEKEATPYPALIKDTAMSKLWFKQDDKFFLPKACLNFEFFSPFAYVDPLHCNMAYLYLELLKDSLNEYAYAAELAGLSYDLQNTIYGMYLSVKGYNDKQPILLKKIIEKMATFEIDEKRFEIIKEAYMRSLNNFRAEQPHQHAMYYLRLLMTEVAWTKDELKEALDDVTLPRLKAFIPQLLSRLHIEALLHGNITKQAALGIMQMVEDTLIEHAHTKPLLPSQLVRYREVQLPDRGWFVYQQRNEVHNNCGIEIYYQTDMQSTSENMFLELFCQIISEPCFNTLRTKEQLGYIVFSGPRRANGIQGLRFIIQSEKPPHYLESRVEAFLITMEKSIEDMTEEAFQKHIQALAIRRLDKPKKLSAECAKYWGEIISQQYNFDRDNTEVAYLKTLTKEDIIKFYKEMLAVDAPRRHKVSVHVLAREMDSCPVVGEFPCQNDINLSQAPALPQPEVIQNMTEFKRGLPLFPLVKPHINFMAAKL

[1] = Counterscreen for IDE inhibitors: Luminescence-based cell-based high throughput dose response assay to identify compounds that are cytotoxic to HEK cells. [Related pubchem assays: 434962 (Primary screen (IDE inhibitors in singlicate)), 449730 (Counterscreen (Cytotoxicity in triplicate)), 435028 (Confirmation (IDE inhibitors in triplicate)) …; assay type: functional; details: HEK293
[2] = target: T2, Rac GTPase-activating protein 1 (Homo sapiens, UniProt Q9H0H5); experiment: blockers of MgcRacGAP-driven Rac1 GTP hydrolysis – biochemical, ADP Hunter fluorescence, primary and confirmatory, confirmation (AID 624330); assay type: functional
T2 sequence (Q9H0H5 whole entry): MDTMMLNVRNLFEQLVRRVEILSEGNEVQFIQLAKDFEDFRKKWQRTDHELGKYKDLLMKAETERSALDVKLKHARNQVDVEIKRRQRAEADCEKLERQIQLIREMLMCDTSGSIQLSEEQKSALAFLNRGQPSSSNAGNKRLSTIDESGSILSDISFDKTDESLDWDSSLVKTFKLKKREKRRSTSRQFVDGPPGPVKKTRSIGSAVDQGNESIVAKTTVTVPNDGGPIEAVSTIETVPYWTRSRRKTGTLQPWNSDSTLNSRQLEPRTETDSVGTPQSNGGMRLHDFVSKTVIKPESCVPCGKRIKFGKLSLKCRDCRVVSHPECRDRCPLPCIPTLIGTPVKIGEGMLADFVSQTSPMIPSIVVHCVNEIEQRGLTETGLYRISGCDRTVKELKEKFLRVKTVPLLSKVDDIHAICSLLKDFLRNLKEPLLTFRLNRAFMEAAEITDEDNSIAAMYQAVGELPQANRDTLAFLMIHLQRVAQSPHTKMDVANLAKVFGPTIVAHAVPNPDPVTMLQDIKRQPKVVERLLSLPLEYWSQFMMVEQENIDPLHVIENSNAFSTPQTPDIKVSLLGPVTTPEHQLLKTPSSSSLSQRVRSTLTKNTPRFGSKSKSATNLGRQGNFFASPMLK

[3] = viability loss in HeLa cells – cytotoxicity control for MgcRacGAP inhibitor project, dose response (AID 624300); assay type: functional
Wee1-like protein kinase = Wee1-like protein kinase (Homo sapiens, UniProt P30291); experiment: Dose Response Cell-based Assay for Inhibitors of Wee1 Degradation. [Related pubchem assays: 1410, 1321 ]; assay type: functional
[4] = target: G2/mitotic-specific cyclin-B1 (Homo sapiens, UniProt P14635); experiment: Counterscreen assay for inhibitors of Wee1 degradation: dose response cell-based assay to identify inhibitors of cyclin B degradation. [Related pubchem assays: 1410, 1321 ]; assay type: functional
[5] = Luminescence Cell-Based Dose Response HTS to Identify Inhibitors of 5'UTR Stem-Loop Driven Prion Protein mRNA Translation in H4 Neuroglioblastoma Cells. [Related pubchem assays: 1827 (Project Summary), 1813 (Primary HTS)]; assay type: functional
[6] = alpha-synuclein stem-loop translation blockers – luminescence, H4 neuroglioblastoma cells, dose confirmation, confirmation (AID 2454); assay type: functional, cell-based;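 further: H4 neuroglioblastoma cells carrying an alpha-synuclein 5'UTR luciferase reporter; potency for inhibition of the luciferase signal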
[7] = alpha-synuclein stem-loop luciferase translation blockers – H4 neuroglioma cells, luminescence, confirmation (AID 1988); assay type: functional, cell-based
[8] = luciferase reporter signal suppression in cells – H4 neuroglioma cells, luminescence, dose response (AID 1990); assay type: functional, cell-based
[9] = luciferase reporter signal reduction – luminescence, H4-C neuroglioblastoma cells, dose response (AID 2458); assay type: functional, cell-based;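 further: H4 neuroglioblastoma cells stably carrying a luciferase reporter gene fusion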
[10] = microbe, parasite or virus in culture; assay type: functional; details: Mycobacterium tuberculosis
cells = assay type: functional, cell-based

Chain of G2/mitotic-specific cyclin-B1 (P14635 whole entry): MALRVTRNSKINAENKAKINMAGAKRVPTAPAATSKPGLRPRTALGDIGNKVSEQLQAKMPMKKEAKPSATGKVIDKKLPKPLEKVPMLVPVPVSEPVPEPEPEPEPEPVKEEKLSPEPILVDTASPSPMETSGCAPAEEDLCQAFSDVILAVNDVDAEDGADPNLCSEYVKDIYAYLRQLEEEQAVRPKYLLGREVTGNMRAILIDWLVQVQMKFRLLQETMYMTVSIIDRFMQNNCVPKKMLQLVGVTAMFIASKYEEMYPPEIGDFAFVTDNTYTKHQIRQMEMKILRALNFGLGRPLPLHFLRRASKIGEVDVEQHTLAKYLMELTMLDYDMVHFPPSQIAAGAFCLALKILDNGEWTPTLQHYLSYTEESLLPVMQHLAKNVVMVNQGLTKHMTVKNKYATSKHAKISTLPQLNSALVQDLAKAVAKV
Chain of Wee1-like protein kinase (P30291 whole entry): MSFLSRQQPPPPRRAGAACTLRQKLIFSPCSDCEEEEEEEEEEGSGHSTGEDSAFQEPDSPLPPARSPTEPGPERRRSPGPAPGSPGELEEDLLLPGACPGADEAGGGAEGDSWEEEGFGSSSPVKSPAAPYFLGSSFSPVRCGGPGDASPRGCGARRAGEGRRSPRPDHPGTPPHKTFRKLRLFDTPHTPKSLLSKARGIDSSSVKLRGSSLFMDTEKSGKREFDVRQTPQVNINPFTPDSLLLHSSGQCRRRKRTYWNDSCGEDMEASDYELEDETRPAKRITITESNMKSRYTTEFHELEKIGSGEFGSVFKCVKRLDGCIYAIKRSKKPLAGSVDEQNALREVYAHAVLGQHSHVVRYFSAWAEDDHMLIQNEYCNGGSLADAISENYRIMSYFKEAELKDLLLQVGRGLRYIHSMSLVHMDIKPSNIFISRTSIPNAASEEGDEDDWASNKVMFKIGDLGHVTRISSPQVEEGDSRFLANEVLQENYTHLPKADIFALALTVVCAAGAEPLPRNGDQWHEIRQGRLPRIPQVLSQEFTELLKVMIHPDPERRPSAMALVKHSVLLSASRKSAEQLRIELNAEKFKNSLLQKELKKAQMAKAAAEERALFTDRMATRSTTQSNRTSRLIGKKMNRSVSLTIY

For `COc1ccc(NC2=NC(=O)/C(=C/c3ccc(O)c(OC)c3)S2)cc1`, the IC50 (Insulin-degrading enzyme) was > 6.22 µM (active), the IC50 [1] was 38.1 µM (not active) and the IC50 [2] was 17.9 µM (active). The CC50 [3] was 95.4 µM (active).
For `COc1cc(C2=NOC(C(=O)NCc3cccs3)C2)cc(OC)c1OC` (stereo not drawn), the EC50 (Wee1-like protein kinase) was > 49.7 µM (not active) and the EC50 [4] was > 49.7 µM (not active).
For `Cc1ccc(C(=O)Nc2cccc(C(F)(F)F)c2)cc1Nc1[nH]cnc2ncnc1-2`, the EC50 [5] was 11.8 µM (active), the EC50 [6] was > 12 µM (not active) and the EC50 [7] was < 0.1 µM (active). For the same molecule, the EC50 [8] was < 0.1 µM (active), the EC50 [9] was 1.22 µM (active) and the CC50 [10] was 34.8 µM (active). The EC50 (cells) was 4.59 µM (active).
